Measured values as given in ChEMBL document CHEMBL5038611, “Design, synthesis and bioevaluation of 6-aryl-1-(3,4,5-trimethoxyphenyl)-1H-benzo[d]imidazoles as tubulin polymerization inhibitors” (Eur J Med Chem, 2021).
Calls of active or inactive are those of the source. The calls are words filed in the database; no cut-off is given here.

Columns and labels:
MCF7 [1] = experiment: Antiproliferative activity against human MCF7 cells assessed as reduction in cell viability incubated for 72 hrs by MTT assay; type: functional, cell-based; details: MCF7, 72 h
SGC-7901 = experiment: Antiproliferative activity against human SGC-7901 cells assessed as reduction in cell viability incubated for 72 hrs by MTT assay; type: functional, cell-based; details: SGC-7901, 72 h
A549 = experiment: Antiproliferative activity against human A549 cells assessed as reduction in cell viability incubated for 72 hrs by MTT assay; type: functional, cell-based; details: A549, 72 h
[2] = Toxicity in BALB/c nude mouse xenografted with human MCF7 cells assessed as effect on spleen at 10 mg/kg, iv administered every 2 days for 2 weeks; type: organism-based; details: in vivo, 336 h
Tubulin (Homo sapiens) [3] = target: T1, Tubulin (Homo sapiens) (UniProt P68371+Q9H4B7+P0DPH7+P68366+Q13509+Q71U36+P04350+Q3ZCM7+P07437+P68363+Q9BQE3+Q6PEY2+Q13885+Q9BVA1+Q9BUF5); experiment: Inhibition of microtubule polymerization in human MCF7 cells assessed as disorganisation of microtubule by measuring short and wrapped structure at 2 times IC50 incubated for 24 hrs by DAPI staining based immunofluorescence assay; type: cell-based
Sus scrofa = organism: Sus scrofa; experiment: Inhibition of porcine brain tubulin polymerization measured every 1 min for 90 mins by microplate based assay in the presence of GTP
MCF7 [4] = experiment: Induction of cell cycle arrest in human MCF7 cells assessed as accumulation of cells at G2/M phase at 0.5 fold IC50 measured after 24 hrs by flow cytometry (reference value: 11 %); type: functional
MCF7 [5] = experiment: Induction of cell cycle arrest in human MCF7 cells assessed as accumulation of cells at G2/M phase at 1 fold IC50 measured after 24 hrs by flow cytometry (reference value: 11 %); type: functional
MCF7 [6] = experiment: Induction of cell cycle arrest in human MCF7 cells assessed as accumulation of cells at G2/M phase at 2 fold IC50 measured after 24 hrs by flow cytometry (reference value: 11 %); type: functional
MCF7 [7] = experiment: Induction of apoptosis in human MCF7 cells assessed as viable cells at 1 fold IC50 after 48 hrs by Annexin-V-FITC/PI-staining based flow cytometric analysis (reference value: 96.2%); type: functional
MCF7 [8] = experiment: Induction of apoptosis in human MCF7 cells assessed as early apoptotic cells at 1 fold IC50 after 48 hrs by Annexin-V-FITC/PI-staining based flow cytometric analysis (reference value: 1.59%); type: functional
MCF7 [9] = experiment: Induction of apoptosis in human MCF7 cells assessed as late apoptotic cells at 1 fold IC50 after 48 hrs by Annexin-V-FITC/PI-staining based flow cytometric analysis (reference value: 0.556%); type: functional
MCF7 [10] = experiment: Induction of apoptosis in human MCF7 cells assessed as necrotic cells at 1 fold IC50 after 48 hrs by Annexin-V-FITC/PI-staining based flow cytometric analysis (reference value: 1.61%); type: functional
MCF7 [11] = experiment: Induction of apoptosis in human MCF7 cells assessed as viable cells at 2 fold IC50 after 48 hrs by Annexin-V-FITC/PI-staining based flow cytometric analysis (reference value: 96.2%); type: functional
MCF7 [12] = experiment: Induction of apoptosis in human MCF7 cells assessed as early apoptotic cells at 2 fold IC50 after 48 hrs by Annexin-V-FITC/PI-staining based flow cytometric analysis (reference value: 1.59%); type: functional
MCF7 [13] = experiment: Induction of apoptosis in human MCF7 cells assessed as late apoptotic cells at 2 fold IC50 after 48 hrs by Annexin-V-FITC/PI-staining based flow cytometric analysis (reference value: 0.556%); type: functional
MCF7 [14] = experiment: Induction of apoptosis in human MCF7 cells assessed as necrotic cells at 2 fold IC50 after 48 hrs by Annexin-V-FITC/PI-staining based flow cytometric analysis (reference value: 1.61%); type: functional
MCF7 [15] = experiment: Induction of apoptosis in human MCF7 cells assessed as viable cells at 3 fold IC50 after 48 hrs by Annexin-V-FITC/PI-staining based flow cytometric analysis (reference value: 96.2%); type: functional
MCF7 [16] = experiment: Induction of apoptosis in human MCF7 cells assessed as early apoptotic cells at 3 fold IC50 after 48 hrs by Annexin-V-FITC/PI-staining based flow cytometric analysis (reference value: 1.59%); type: functional
MCF7 [17] = experiment: Induction of apoptosis in human MCF7 cells assessed as late apoptotic cells at 3 fold IC50 after 48 hrs by Annexin-V-FITC/PI-staining based flow cytometric analysis (reference value: 0.556%); type: functional
MCF7 [18] = experiment: Induction of apoptosis in human MCF7 cells assessed as necrotic cells at 3 fold IC50 after 48 hrs by Annexin-V-FITC/PI-staining based flow cytometric analysis (reference value: 1.61%); type: functional
MCF7 [19] = experiment: Inhibition of cell migration in human MCF7 cells measured after 24 hrs by phase-contrast microscopy based wound healing assay; type: functional; details: dose 25-50 nM
4T1 = experiment: Antitumor activity against mouse 4T1 cells xenografted in BALB/c mouse assessed as reduction in tumor weight at 2.5 mg/kg, iv administered every 2 days for 2 weeks; type: functional; design: scale not given: the % may be the effect or the level left
[20] = Toxicity in BALB/c nude mouse xenografted with mouse 4T1 cells assessed as body weight loss at 2.5 mg/kg, iv administered every 2 days for 2 weeks relative to control; type: organism-based; details: in vivo, 336 h
[21] = Toxicity in BALB/c nude mouse xenografted with human MCF7 cells assessed as effect on heart at 2.5 mg/kg, iv administered every 2 days for 2 weeks; type: organism-based; details: in vivo, 336 h
[22] = Toxicity in BALB/c nude mouse xenografted with human MCF7 cells assessed as effect on liver at 2.5 mg/kg, iv administered every 2 days for 2 weeks; type: organism-based; details: in vivo, 336 h
[23] = Toxicity in BALB/c nude mouse xenografted with human MCF7 cells assessed as effect on spleen at 2.5 mg/kg, iv administered every 2 days for 2 weeks; type: organism-based; details: in vivo, 336 h
[24] = Toxicity in BALB/c nude mouse xenografted with human MCF7 cells assessed as effect on kidney at 2.5 mg/kg, iv administered every 2 days for 2 weeks; type: organism-based; details: in vivo, 336 h
Tubulin (Homo sapiens) [25] = target: T1, Tubulin (Homo sapiens); experiment: Binding affinity to colchicine binding site of tubulin (unknown origin) assessed as decrease in fluorescence of colchicine-tubulin complex by fluorescence based assay; type: protein-complex assay

Compound: COc1cc(-n2cnc3ccc(-c4ccc([N+](=O)[O-])cc4)cc32)cc(OC)c1OC
- IC50 (MCF7 [1]): 740 nM
- IC50 (SGC-7901): 79 nM
- IC50 (A549): 8940 nM

Compound: COc1ccc(-c2ccc3ncn(-c4cc(OC)c(OC)c(OC)c4)c3c2)cc1F
- IC50 (MCF7 [1]): 520 nM
- IC50 (SGC-7901): 430 nM
- IC50 (A549): 1430 nM

Compound: COc1ccc(-c2ccc3ncn(-c4cc(OC)c(OC)c(OC)c4)c3c2)cc1
- IC50 (MCF7 [1]): 210 nM
- IC50 (SGC-7901): 82 nM
- IC50 (A549): > 10000 nM

Compound: COc1cc(-n2cnc3ccc(-c4cccc(N)c4)cc32)cc(OC)c1OC
- IC50 (MCF7 [1]): 180 nM
- IC50 (SGC-7901): 21 nM
- IC50 (A549): 640 nM

Compound: Nc1ccn([C@@H]2O[C@H](CO)[C@@H](O)C2(F)F)c(=O)n1 [GEMCITABINE]
- Activity [2]: Toxic

Compound: COc1cccc(-c2ccc3ncn(-c4cc(OC)c(OC)c(OC)c4)c3c2)c1
- IC50 (MCF7 [1]): 1610 nM
- IC50 (SGC-7901): 3310 nM
- IC50 (A549): 3180 nM

Compound: COc1cc(-n2cnc3ccc(-c4ccc(O)cc4)cc32)cc(OC)c1OC
- IC50 (MCF7 [1]): 4160 nM
- IC50 (SGC-7901): > 10000 nM
- IC50 (A549): 5090 nM

Compound: COc1cc(-n2cnc3ccc(-c4cccc(C)c4)cc32)cc(OC)c1OC
- IC50 (MCF7 [1]): 360 nM
- IC50 (SGC-7901): 1240 nM
- IC50 (A549): 3820 nM

Compound: COc1cc(-n2cnc3ccc(-c4cccc(O)c4)cc32)cc(OC)c1OC
- IC50 (MCF7 [1]): 350 nM
- IC50 (SGC-7901): 53 nM
- IC50 (A549): 250 nM

Compound: COc1ccccc1-c1ccc2ncn(-c3cc(OC)c(OC)c(OC)c3)c2c1
- IC50 (MCF7 [1]): 1750 nM
- IC50 (SGC-7901): 5050 nM
- IC50 (A549): 4320 nM

Compound: COc1cc2c(c(OC)c1OC)-c1ccc(OC)c(=O)cc1[C@@H](NC(C)=O)CC2 [COLCHICINE]
- IC50 (MCF7 [1]): 18 nM
- IC50 (SGC-7901): 7 nM
- IC50 (A549): 95 nM

Compound: COc1cc(-n2cnc3ccc(-c4ccc(F)cc4)cc32)cc(OC)c1OC
- IC50 (MCF7 [1]): 1770 nM
- IC50 (SGC-7901): 3500 nM
- IC50 (A549): 6740 nM

Compound: COc1ccc(-c2ccc3ncn(-c4cc(OC)c(OC)c(OC)c4)c3c2)cc1O
- inhibition (Tubulin (Homo sapiens) [3]): Active
- IC50 (MCF7 [1]): 37 nM
- IC50 (SGC-7901): 44 nM
- IC50 (A549): 200 nM
- inhibition (Sus scrofa): Dose-Dependent Effect
- Activity (MCF7 [4]): 15%
- Activity (MCF7 [5]): 22%
- Activity (MCF7 [6]): 72%
- Activity (MCF7 [7]): 75.1%
- Activity (MCF7 [8]): 16%
- Activity (MCF7 [9]): 4.4%
- Activity (MCF7 [10]): 1.51%
- Activity (MCF7 [11]): 52.8%
- Activity (MCF7 [12]): 35.6%
- Activity (MCF7 [13]): 10.4%
- Activity (MCF7 [14]): 0.96%
- Activity (MCF7 [15]): 50.6%
- Activity (MCF7 [16]): 37.6%
- Activity (MCF7 [17]): 11.4%
- Activity (MCF7 [18]): 0.271%
- inhibition (MCF7 [19]): Dose-Dependent Effect
- Activity (4T1): 52%
- Activity [20]: Non-Toxic
- Activity [21]: Non-Toxic
- Activity [22]: Non-Toxic
- Activity [23]: Non-Toxic
- Activity [24]: Non-Toxic
- Activity (Tubulin (Homo sapiens) [25]): Active

Compound: CCOc1ccc(-c2ccc3ncn(-c4cc(OC)c(OC)c(OC)c4)c3c2)cc1
- IC50 (MCF7 [1]): 1710 nM
- IC50 (SGC-7901): 2970 nM
- IC50 (A549): 8550 nM

Compound: COc1cc(-n2cnc3ccc(-c4ccc(C(F)(F)F)cc4)cc32)cc(OC)c1OC
- IC50 (MCF7 [1]): 760 nM
- IC50 (SGC-7901): 890 nM
- IC50 (A549): 3390 nM

Compound: COc1cc(-n2cnc3ccc(-c4ccc(C(C)=O)cc4)cc32)cc(OC)c1OC
- IC50 (MCF7 [1]): 1540 nM
- IC50 (SGC-7901): 450 nM
- IC50 (A549): 2510 nM

Compound: COc1cc(-n2cnc3ccc(-c4ccc(Cl)cc4Cl)cc32)cc(OC)c1OC
- IC50 (MCF7 [1]): 5420 nM
- IC50 (SGC-7901): > 10000 nM
- IC50 (A549): > 10000 nM

Compound: COc1cc(-n2cnc3ccc(-c4ccccc4Cl)cc32)cc(OC)c1OC
- IC50 (MCF7 [1]): > 10000 nM
- IC50 (SGC-7901): > 10000 nM
- IC50 (A549): > 10000 nM

Compound: COc1cc(-n2cnc3ccc(-c4cccc([N+](=O)[O-])c4)cc32)cc(OC)c1OC
- IC50 (MCF7 [1]): 4560 nM
- IC50 (SGC-7901): 380 nM
- IC50 (A549): 5410 nM

Compound: COc1cc(-n2cnc3ccc(-c4ccccc4)cc32)cc(OC)c1OC
- IC50 (MCF7 [1]): 2290 nM
- IC50 (SGC-7901): 290 nM
- IC50 (A549): 3060 nM

Compound: COc1cc(-n2cnc3ccc(-c4ccc(Cl)cc4)cc32)cc(OC)c1OC
- IC50 (MCF7 [1]): 1320 nM
- IC50 (SGC-7901): 1270 nM
- IC50 (A549): > 10000 nM

Compound: COc1cc(-n2cnc3ccc(-c4ccc(C)cc4F)cc32)cc(OC)c1OC
- IC50 (MCF7 [1]): 56 nM
- IC50 (SGC-7901): 5650 nM
- IC50 (A549): > 10000 nM

Compound: COc1cc(-n2cnc3ccc(-c4ccc(C)cc4)cc32)cc(OC)c1OC
- IC50 (MCF7 [1]): 110 nM
- IC50 (SGC-7901): 200 nM
- IC50 (A549): 1940 nM

Compound: COc1cc(-n2cnc3ccc(-c4cccc(C)c4C)cc32)cc(OC)c1OC
- IC50 (MCF7 [1]): 2150 nM
- IC50 (SGC-7901): 3040 nM
- IC50 (A549): 9250 nM

Compound: COc1cc(-n2cnc3ccc(-c4cc(F)ccc4F)cc32)cc(OC)c1OC
- IC50 (MCF7 [1]): 6420 nM
- IC50 (SGC-7901): 6590 nM
- IC50 (A549): 7940 nM

Compound: COc1cc(-c2ccc3ncn(-c4cc(OC)c(OC)c(OC)c4)c3c2)cc(OC)c1OC
- IC50 (MCF7 [1]): > 10000 nM
- IC50 (SGC-7901): > 10000 nM
- IC50 (A549): > 10000 nM

Compound: COc1cc(-n2cnc3ccc(-c4cccc(Cl)c4)cc32)cc(OC)c1OC
- IC50 (MCF7 [1]): 3120 nM
- IC50 (SGC-7901): 1490 nM
- IC50 (A549): 7050 nM

Compound: COc1cc(-n2cnc3ccc(-c4cccc(F)c4)cc32)cc(OC)c1OC
- IC50 (MCF7 [1]): 2350 nM
- IC50 (SGC-7901): 2490 nM
- IC50 (A549): 5270 nM
